Measured values reported in ChEMBL document CHEMBL3046479, “Preparation and antimicrobial activity evaluation of some new bi- and triheterocyclic azoles” (2013).
Values after ≈ are worked out from the molar mass of the structure shown. Active and inactive are the calls of the source. No cut-off for these calls is given here.

Assays:
Format in all cases: functional
Listeria monocytogenes = experiment: Antimicrobial activity against Listeria monocytogenes ATCC 43251 assessed as growth inhibition after 18-24 hr by broth double microdilution method
Escherichia coli = experiment: Antimicrobial activity against Escherichia coli ATCC 35218 assessed as growth inhibition after 18-24 hr by broth double microdilution method
Bacillus cereus = experiment: Antimicrobial activity against Bacillus cereus 709 Roma assessed as growth inhibition after 18-24 hr by broth double microdilution method
[1] = system: Mycolicibacterium smegmatis; experiment: Antimicrobial activity against Mycobacterium smegmatis ATCC 607 assessed as growth inhibition after 48-72 hr by broth double microdilution method
Enterococcus faecalis = experiment: Antimicrobial activity against Enterococcus faecalis ATCC 29212 assessed as growth inhibition after 18-24 hr by broth double microdilution method
Pseudomonas aeruginosa = experiment: Antimicrobial activity against Pseudomonas aeruginosa ATCC 10145 assessed as growth inhibition after 18-24 hr by broth double microdilution method
[2] = system: Yersinia pseudotuberculosis; experiment: Antimicrobial activity against Yersinia pseudotuberculosis ATCC 911 assessed as growth inhibition after 18-24 hr by broth double microdilution method
Candida albicans = experiment: Antimicrobial activity against Candida albicans ATCC 60193 assessed as growth inhibition after 18-24 hr by broth double microdilution method
Saccharomyces cerevisiae = experiment: Antimicrobial activity against Saccharomyces cerevisiae RSKK 251 assessed as growth inhibition after 18-24 hr by broth double microdilution method
Staphylococcus aureus = experiment: Antimicrobial activity against Staphylococcus aureus ATCC 25923 assessed as growth inhibition after 18-24 hr by broth double microdilution method

In the case of `Cc1nn(-c2ccc(/N=C3\SCC(=O)N3Cc3ccccc3)cc2F)c(=O)n1CCCn1ccnc1`, the MIC (Listeria monocytogenes) is reported as “inactive”, the MIC (Escherichia coli) is reported as “inactive” and the MIC (Bacillus cereus) is reported as “inactive”. The MIC [1] was 125 µg/mL (≈ 247 µM), the MIC (Enterococcus faecalis) was “inactive” and the MIC (Pseudomonas aeruginosa) was “inactive”. For the same molecule, the MIC [2] was “inactive”, the MIC (Candida albicans) was 500 µg/mL (≈ 989 µM) and the MIC (Saccharomyces cerevisiae) was 500 µg/mL (≈ 989 µM). The MIC (Staphylococcus aureus) was “inactive”.

Work on `OC(Cn1cncn1)(Cn1cncn1)c1ccc(F)cc1F` [FLUCONAZOLE] yielded an MIC (Candida albicans) of under 8 µg/mL and an MIC (Saccharomyces cerevisiae) of under 8 µg/mL.

For `Cc1nn(-c2ccc(NC(=S)NCc3ccccc3)cc2F)c(=O)n1CCCn1ccnc1`, the MIC (Listeria monocytogenes) was “inactive”, the MIC (Escherichia coli) was “inactive” and the MIC [1] was 250 µg/mL (≈ 537 µM). The MIC (Enterococcus faecalis) was “inactive”, the MIC (Pseudomonas aeruginosa) was “inactive” and the MIC [2] was “inactive”. The MIC (Candida albicans) was 500 µg/mL (≈ 1070 µM), the MIC (Saccharomyces cerevisiae) was 500 µg/mL (≈ 1070 µM) and the MIC (Staphylococcus aureus) was “inactive”.

`Cc1nn(CN2CCCCC2)c(=O)n1CCCn1ccnc1` gave an MIC (Listeria monocytogenes) of under 0.12 µg/mL, an MIC (Escherichia coli) of under 0.12 µg/mL and an MIC (Bacillus cereus) of under 0.12 µg/mL. The MIC [1] was 3.9 µg/mL (≈ 12.8 µM), the MIC (Enterococcus faecalis) was under 0.12 µg/mL and the MIC (Pseudomonas aeruginosa) was under 0.12 µg/mL. For the same molecule, the MIC [2] was under 0.12 µg/mL, the MIC (Candida albicans) was 15.6 µg/mL (≈ 51.2 µM) and the MIC (Saccharomyces cerevisiae) was 3.9 µg/mL (≈ 12.8 µM). For the same molecule, the MIC (Staphylococcus aureus) was under 0.12 µg/mL.

`CC1(C)S[C@@H]2[C@H](NC(=O)[C@H](N)c3ccccc3)C(=O)N2[C@H]1C(=O)O` [AMPICILLIN] gave an MIC (Listeria monocytogenes) of 8 µg/mL (≈ 22.9 µM), an MIC (Bacillus cereus) of under 1 µg/mL and an MIC (Enterococcus faecalis) of 2 µg/mL (≈ 5.72 µM). It also gave an MIC (Pseudomonas aeruginosa) of over 128 µg/mL, an MIC [2] of 32 µg/mL (≈ 91.6 µM) and an MIC (Staphylococcus aureus) of 2 µg/mL (≈ 5.72 µM).

With `Cc1nn(CC(=O)NN)c(=O)n1CCCn1ccnc1` the MIC (Listeria monocytogenes) was “inactive”, the MIC (Escherichia coli) was 125 µg/mL (≈ 448 µM) and the MIC (Bacillus cereus) was “inactive”. The MIC [1] was 125 µg/mL (≈ 448 µM), the MIC (Enterococcus faecalis) was “inactive” and the MIC (Pseudomonas aeruginosa) was “inactive”. The MIC [2] was 125 µg/mL (≈ 448 µM), the MIC (Candida albicans) was “inactive” and the MIC (Saccharomyces cerevisiae) was “inactive”. For the same molecule, the MIC (Staphylococcus aureus) was “inactive”.

`CCOC(=O)Cn1nc(C)n(CCCn2ccnc2)c1=O` was tested, and the MIC (Listeria monocytogenes) was “inactive”, the MIC (Escherichia coli) was “inactive” and the MIC (Bacillus cereus) was “inactive”. For the same molecule, the MIC [1] was “inactive”, the MIC (Enterococcus faecalis) was “inactive” and the MIC (Pseudomonas aeruginosa) was “inactive”. For the same molecule, the MIC (Candida albicans) was 250 µg/mL (≈ 852 µM), the MIC (Saccharomyces cerevisiae) was “inactive” and the MIC (Staphylococcus aureus) was “inactive”.

In the case of `Cc1nn(CN2CCN(c3ccccc3)CC2)c(=O)n1CCCn1ccnc1`, the MIC (Listeria monocytogenes) is reported as “inactive”, the MIC (Escherichia coli) is reported as “inactive” and the MIC (Bacillus cereus) is reported as 1.2 µg/mL (≈ 3.15 µM). For the same molecule, the MIC [1] was “inactive”, the MIC (Enterococcus faecalis) was “inactive” and the MIC (Pseudomonas aeruginosa) was 31.3 µg/mL (≈ 82 µM). For the same molecule, the MIC [2] was 0.7 µg/mL (≈ 1.83 µM), the MIC (Candida albicans) was “inactive” and the MIC (Saccharomyces cerevisiae) was 125 µg/mL (≈ 328 µM). It also gave an MIC (Staphylococcus aureus) of 62.5 µg/mL (≈ 164 µM).

With `COc1ccc(/C=N/NC(=O)Cn2nc(C)n(/N=C/c3ccncc3)c2=O)cc1` the MIC (Listeria monocytogenes) was “inactive”, the MIC (Escherichia coli) was “inactive” and the MIC (Bacillus cereus) was “inactive”. The MIC [1] was “inactive”, the MIC (Enterococcus faecalis) was “inactive” and the MIC (Pseudomonas aeruginosa) was “inactive”. For the same molecule, the MIC [2] was “inactive”, the MIC (Candida albicans) was 250 µg/mL (≈ 635 µM) and the MIC (Saccharomyces cerevisiae) was “inactive”. For the same molecule, the MIC (Staphylococcus aureus) was “inactive”.

`Cc1nn(Cc2nnc(S)n2-c2ccccc2)c(=O)n1CCCn1ccnc1` was tested, and the MIC (Listeria monocytogenes) was “inactive”, the MIC (Escherichia coli) was “inactive” and the MIC (Bacillus cereus) was “inactive”. For the same molecule, the MIC [1] was 125 µg/mL (≈ 315 µM), the MIC (Enterococcus faecalis) was “inactive” and the MIC (Pseudomonas aeruginosa) was “inactive”. The MIC [2] was “inactive”, the MIC (Candida albicans) was 500 µg/mL (≈ 1260 µM) and the MIC (Saccharomyces cerevisiae) was 500 µg/mL (≈ 1260 µM). For the same molecule, the MIC (Staphylococcus aureus) was “inactive”.

For `Cc1nn(CC(=O)N/N=c2\sc(-c3ccc(Cl)cc3)cn2-c2ccccc2)c(=O)n1/N=C/c1ccncc1`, the MIC (Listeria monocytogenes) was “inactive”, the MIC (Escherichia coli) was “inactive” and the MIC (Bacillus cereus) was 125 µg/mL (≈ 229 µM). For the same molecule, the MIC [1] was “inactive”, the MIC (Enterococcus faecalis) was “inactive” and the MIC (Pseudomonas aeruginosa) was “inactive”. For the same molecule, the MIC [2] was “inactive”, the MIC (Candida albicans) was 125 µg/mL (≈ 229 µM) and the MIC (Saccharomyces cerevisiae) was 250 µg/mL (≈ 459 µM). It also gave an MIC (Staphylococcus aureus) of 125 µg/mL (≈ 229 µM).

`Cc1n[nH]c(=O)n1CCCn1ccnc1` was tested, and the MIC (Listeria monocytogenes) was “inactive”, the MIC (Escherichia coli) was “inactive” and the MIC [1] was 125 µg/mL (≈ 603 µM). For the same molecule, the MIC (Enterococcus faecalis) was “inactive”, the MIC (Pseudomonas aeruginosa) was “inactive” and the MIC [2] was “inactive”. For the same molecule, the MIC (Candida albicans) was 500 µg/mL (≈ 2410 µM), the MIC (Saccharomyces cerevisiae) was 1000 µg/mL (≈ 4830 µM) and the MIC (Staphylococcus aureus) was “inactive”.

In the case of `Cc1nn(CC(=O)N/N=C2\SCC(=O)N2c2ccccc2)c(=O)n1CCCn1ccnc1`, the MIC (Listeria monocytogenes) is reported as “inactive”, the MIC (Escherichia coli) is reported as “inactive” and the MIC (Bacillus cereus) is reported as “inactive”. For the same molecule, the MIC [1] was 62.5 µg/mL (≈ 138 µM), the MIC (Enterococcus faecalis) was “inactive” and the MIC (Pseudomonas aeruginosa) was “inactive”. For the same molecule, the MIC [2] was “inactive”, the MIC (Candida albicans) was “inactive” and the MIC (Saccharomyces cerevisiae) was “inactive”. For the same molecule, the MIC (Staphylococcus aureus) was “inactive”.

`Cc1nn(CC(=O)NNC(=S)Nc2ccccc2)c(=O)n1/N=C/c1ccncc1` was tested, and the MIC (Listeria monocytogenes) was “inactive”, the MIC (Escherichia coli) was “inactive” and the MIC (Bacillus cereus) was “inactive”. The MIC [1] was “inactive”, the MIC (Enterococcus faecalis) was “inactive” and the MIC (Pseudomonas aeruginosa) was “inactive”. For the same molecule, the MIC [2] was “inactive”, the MIC (Candida albicans) was “inactive” and the MIC (Saccharomyces cerevisiae) was “inactive”. For the same molecule, the MIC (Staphylococcus aureus) was “inactive”.
